{
  "source": "paper PMC8347608",
  "about": "“Natural Compounds Isolated from Stachybotrys chartarum Are Potent Inhibitors of Human Protein Kinase CK2” (Molecules, 2021)",
  "key": {"[1]": {"biological_target": "human recombinant CK2 holoenzyme (Homo sapiens, UniProt P68400)", "sequence (P68400 whole entry)": "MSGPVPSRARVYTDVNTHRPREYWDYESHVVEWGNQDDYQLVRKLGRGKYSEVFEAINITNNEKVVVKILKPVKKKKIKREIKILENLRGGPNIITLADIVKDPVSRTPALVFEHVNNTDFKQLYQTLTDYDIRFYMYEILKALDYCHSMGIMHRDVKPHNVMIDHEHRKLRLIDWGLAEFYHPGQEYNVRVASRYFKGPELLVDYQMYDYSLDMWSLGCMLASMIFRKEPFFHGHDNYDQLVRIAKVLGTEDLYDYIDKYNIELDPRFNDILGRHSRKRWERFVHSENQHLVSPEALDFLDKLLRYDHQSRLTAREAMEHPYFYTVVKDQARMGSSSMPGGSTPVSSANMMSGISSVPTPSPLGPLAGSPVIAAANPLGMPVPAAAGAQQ", "sequence (P67870 whole entry partner)": "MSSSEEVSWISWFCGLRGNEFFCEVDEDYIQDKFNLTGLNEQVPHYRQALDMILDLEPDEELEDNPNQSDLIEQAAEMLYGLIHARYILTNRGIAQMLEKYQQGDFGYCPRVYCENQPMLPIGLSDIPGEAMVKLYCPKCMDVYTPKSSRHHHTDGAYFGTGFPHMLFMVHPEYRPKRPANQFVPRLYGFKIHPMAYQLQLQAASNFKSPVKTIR", "assay": "CE-based CK2 activity assay (substrate peptide RRRDDDSDDD)", "format": "biochemical"}, "LDH-5 from rabbit muscle": {"biological_target": "T1, LDH-5 from rabbit muscle (Oryctolagus cuniculus, UniProt P13491)", "T1 construct": "LDH-5 from rabbit muscle; purchased Roche Diagnostics GmbH, Mannheim, Germany; host or cells: rabbit muscle", "assay": "LDH assay (NADH absorption at 340 nm)", "format": "biochemical", "details": "10 µM compound; data not shown", "description": "A reaction of aldehyde groups appearing at position 4´and 5´ of the phenylspirodrimanes such as acetoxystachybotrydial acetate (Figure 1) with amino acids in proteins has been reported before. The ATP dependency of the IC50 value as shown above is a clear indicator that the interaction between the compound and CK2 seems to be specific and is not due to any non-specific reaction of the dialdehydes of phenylspirodrimanes with amines in a protein. Finally, to rule out this aspect, the inhibitory effect of acetoxystachybotrydial acetate on lactate dehydrogenase (LDH) was determined. Even at a concentration of 10 µM, no inhibition of LDH by acetoxystachybotrydial acetate was observed, indicating no non-specific interaction of acetoxystachybotrydial acetate by coupling to protein amines (data not shown).\nFor the determination of enzymatic activity of lactate dehydrogenase (LDH), 0.25 µg of LDH-5 from rabbit muscle (Roche Diagnostics GmbH, Mannheim, Germany) was incubated in phosphate buffered saline (PBS) containing 0.25 mM nicotinamide adenine dinucleotide (NADH) and 0.625 mM pyruvate in a total volume of 1 mL at room temperature. Absorption at 340 nm was monitored every 5 s within 5 min. For the determination of inhibitory activity of phenylspirodrimanes towards LDH, acetoxystachybotrydial acetate was added in a final concentration of 10 µM; 0.1% DMSO served as a control."}, "A427 cells [2]": {"system": "A427 cells", "assay": "IncuCyte live-cell imaging, cell growth (confluence)", "format": "cell-based, human", "details": "48 h"}, "A431 cells [3]": {"system": "A431 cells", "assay": "IncuCyte live-cell imaging, cell growth (confluence)", "format": "cell-based, human", "details": "48 h"}, "[4]": {"system": "MCF7 NucLight Green cells", "assay": "IncuCyte live-cell imaging, cell growth (confluence)", "format": "cell-based, human", "details": "48 h"}, "[5]": {"system": "MCF7 NucLight Green cells", "assay": "EdU cell proliferation assay", "format": "cell-based, human", "details": "for proliferating cells relative to control: 24 h incubation"}, "MTT cell viability assay": {"assay": "MTT cell viability assay", "details": "human, cell viability (% of control)"}, "A431 cells [6]": {"system": "A431 cells", "assay": "MTT cell viability assay", "details": "48 h; for reduction of cell viability: 10 µM, data not shown"}, "MCF7 cells [7]": {"system": "MCF7 cells"}, "in vitro": {"assay": "in vitro", "details": "human"}, "A427 cells [8]": {"system": "A427 cells", "assay": "MTT cell viability assay", "details": "48 h; for reduction of cell viability: 10 µM, data not shown"}, "MCF7 cells [9]": {"system": "MCF7 cells", "assay": "MTT cell viability assay", "details": "100 µM, 48 h"}, "MCF7 cells [10]": {"system": "MCF7 cells", "set-up": "method as in PMID 30965682", "details": "other human CK2 inhibitor, compared with MCF7 value; cited from earlier work"}, "[11]": {"details": "10 µM compound, relative to DMSO control, read-out: % Inhibition at 10 µM"}, "[12]": {"details": "read-out: % Inhibition at 10 µM"}, "[13]": {"details": "nine concentrations 0.001-100 µM, mean ± SD, three independent experiments, read-out: IC50"}},
  "note": "Where two headings read alike, the source gives them in different places.",
  "data": [
    {"smiles": "CC(=O)OC1CC2(C)C(CCC(C)C23Cc2c(O)cc(C=O)c(C=O)c2O3)C(C)(C)C1OC(C)=O", "note": "(centres unmarked) [Acetoxystachybotrydial acetate]", "values": [
      {"measurement": "IC50", "setting": "[1]", "value": 1860, "unit": "nM"},
      {"measurement": "Ki", "setting": "[1]", "value": 1410, "unit": "nM"},
      {"measurement": "mode of inhibition", "setting": "[1]", "value": "ATP competitive mode of inhibition"},
      {"measurement": "inhibition of LDH", "setting": "LDH-5 from rabbit muscle", "value": "no inhibition"},
      {"measurement": "cell growth (confluence)", "setting": "A427 cells [2]; 1 µM", "value": "strongly impaired"},
      {"measurement": "cell growth (confluence)", "setting": "A431 cells [3]; 1 µM", "value": "completely blocked"},
      {"measurement": "cell growth (confluence)", "setting": "[4]; 1 µM", "value": "completely blocked"},
      {"measurement": "total number of cells (phase contrast images)", "setting": "[4]; 1 µM, compared with 1% DMSO control", "value": "strongly reduced"},
      {"measurement": "proliferating cells relative to control", "setting": "[5]; 1 µM", "value": "Less than 1%"},
      {"measurement": "EC50", "setting": "[5]; Homo sapiens, MCF7, 24 h, read-out: EC50 inhibition of cell proliferation", "value": 390, "unit": "nM"},
      {"measurement": "viability at 48 h, 1 µM", "setting": "MTT cell viability assay; 1 µM", "value": 14, "unit": "%"},
      {"measurement": "viability at 48 h, 100 µM", "setting": "MTT cell viability assay; 100 µM", "value": 12, "unit": "%"}
    ]},
    {"smiles": "C[C@@H]1CC[C@H]2C(C)(C)[C@H](O)CC[C@]2(C)[C@@]12Cc1c(O)cc(CO)c(C=O)c1O2", "note": "[L-671]", "values": [
      {"measurement": "inhibition at 10 µM", "setting": "[1]; [11]", "value": 42, "unit": "%"}
    ]},
    {"smiles": "CC(=O)O[C@@H]1[C@H](OC(C)=O)C[C@@]2(C)[C@@H](CC[C@@H](C)[C@]23Cc2c(O)cc(CO)c(C=O)c2O3)C1(C)C", "note": "[Stachybonoid D]", "values": [
      {"measurement": "inhibition at 10 µM", "setting": "[1]; [11]", "value": 47, "unit": "%"}
    ]},
    {"smiles": "C[C@@H]1CC[C@H]2C(C)(C)[C@H](O)CC[C@]2(C)[C@@]12Cc1c(O)cc3c(c1O2)CN(CCO)C3=O", "note": "[Stachybotryamide]", "values": [
      {"measurement": "inhibition at 10 µM", "setting": "[1]; [12]", "value": 21, "unit": "%"}
    ]},
    {"smiles": "CC(C)=CCC/C(C)=C/CC[C@@]1(C)C=Cc2c(O)cc(C)c(C=O)c2O1", "note": "[Stachybotrychromene A]", "values": [
      {"measurement": "inhibition at 10 µM", "setting": "[1]; [12]", "value": 26, "unit": "%"}
    ]},
    {"smiles": "CC(=O)Oc1cc(O)c2c(c1C=O)O[C@@](C)(CC/C=C(\\C)CCC=C(C)C)C=C2", "note": "[Stachybotrychromene B]", "values": [
      {"measurement": "inhibition at 10 µM", "setting": "[1]; [12]", "value": 47, "unit": "%"}
    ]},
    {"smiles": "CC(C)=CCCC(C)=CCCC1(C)C=Cc2c(O)cc(C=O)c(C=O)c2O1", "note": "(centres unmarked) [Stachybotrychromene C]", "values": [
      {"measurement": "reduction of cell viability (by %)", "setting": "A431 cells [6]; 1 µM", "value": 27, "unit": "%"},
      {"measurement": "reduction of cell viability", "setting": "A431 cells [6]", "value": "Almost no further reduction"},
      {"measurement": "increase of inhibitory effect on cell viability compared with 1 µM", "setting": "A431 cells [6]; 100 µM", "value": "~10", "unit": "%"},
      {"measurement": "IC50", "setting": "[1]; [13]", "value": 320, "unit": "nM"},
      {"measurement": "cell viability (% of control)", "setting": "MCF7 cells [7]; 100 µM", "value": "not decreased"},
      {"measurement": "cell growth (confluence)", "setting": "A427 cells [2]; 1 µM", "value": "no inhibition of growth"},
      {"measurement": "cell growth (confluence)", "setting": "A427 cells [2]; 100 µM", "value": "no other cell line was affected"},
      {"measurement": "cell growth (confluence)", "setting": "A431 cells [3]; 1 µM", "value": "no inhibition of growth"},
      {"measurement": "cell growth (confluence)", "setting": "A431 cells [3]; 100 µM", "value": "no other cell line was affected"},
      {"measurement": "cell growth (confluence)", "setting": "[4]; 1 µM", "value": "no inhibition of growth"},
      {"measurement": "cell growth (confluence)", "setting": "[4]; 100 µM", "value": "reduce the growth"},
      {"measurement": "proliferating cells relative to control", "setting": "[5]; 100 µM", "value": "negligible effects"},
      {"measurement": "viability at 48 h, 1 µM", "setting": "in vitro", "value": 155, "unit": "%"},
      {"measurement": "reduction of cell viability (by %)", "setting": "A427 cells [8]; 1 µM", "value": 32, "unit": "%"},
      {"measurement": "reduction of cell viability", "setting": "A427 cells [8]", "value": "Almost no further reduction"},
      {"measurement": "increase of inhibitory effect on cell viability compared with 1 µM", "setting": "A427 cells [8]; 100 µM", "value": "~10", "unit": "%"}
    ]},
    {"smiles": "CC(=O)OC1CCC2(C)C(CCC(C)C23Cc2c(O)cc(C=O)c(C=O)c2O3)C1(C)C", "note": "(centres unmarked) [Stachybotrydial acetate]", "values": [
      {"measurement": "reduction of cell viability", "setting": "A431 cells [6]", "value": "not significant"},
      {"measurement": "reduction of cell viability (by %)", "setting": "A431 cells [6]; 100 µM", "value": 93, "unit": "%"},
      {"measurement": "IC50", "setting": "[1]; [13]", "value": 690, "unit": "nM"},
      {"measurement": "reduction of cell viability (by %)", "setting": "MCF7 cells [9]", "value": 86, "unit": "%"},
      {"measurement": "cell viability (% of control)", "setting": "MCF7 cells [7]; 1 µM", "value": "increased"},
      {"measurement": "cell growth (confluence)", "setting": "A427 cells [2]; 1 µM", "value": "no effect"},
      {"measurement": "cell growth (confluence)", "setting": "A427 cells [2]; 100 µM", "value": "completely blocked"},
      {"measurement": "cell growth (confluence)", "setting": "A431 cells [3]; 1 µM", "value": "no effect"},
      {"measurement": "cell growth (confluence)", "setting": "A431 cells [3]; 100 µM", "value": "completely blocked"},
      {"measurement": "cell growth (confluence)", "setting": "[4]; 1 µM", "value": "no effect"},
      {"measurement": "cell growth (confluence)", "setting": "[4]; 100 µM", "value": "completely blocked"},
      {"measurement": "reduction of cell viability", "setting": "A427 cells [8]", "value": "not significant"},
      {"measurement": "reduction of cell viability (by %)", "setting": "A427 cells [8]; 100 µM", "value": 82, "unit": "%"}
    ]},
    {"smiles": "C[C@@H]1CC[C@H]2C(C)(C)[C@H](O)CC[C@]2(C)[C@@]12Cc1c(O)cc(C=O)c(C=O)c1O2", "note": "[Stachybotrydial]", "values": [
      {"measurement": "IC50", "setting": "[1]; [13]", "value": 4430, "unit": "nM"}
    ]},
    {"smiles": "CC(=O)O[C@@H]1CC[C@@]2(C)[C@@H](CC[C@@H](C)[C@]23Cc2c(O)cc4c(c2O3)CNC4=O)C1(C)C", "note": "[Stachybotrylactam acetate]", "values": [
      {"measurement": "inhibition at 10 µM", "setting": "[1]; [12]", "value": 44, "unit": "%"}
    ]},
    {"smiles": "CC(=O)O[C@@H]1CC[C@@]2(C)[C@@H](CC[C@@H](C)[C@]23Cc2c(O)cc(CO)c(C=O)c2O3)C1(C)C", "note": "[Stachybotrysin B]", "values": [
      {"measurement": "% Inhibition at 10 µM", "setting": "[1]", "value": 50, "unit": "%"},
      {"measurement": "IC50", "setting": "[1]; [13]", "value": 13400, "unit": "nM"},
      {"measurement": "inhibition at 10 µM", "setting": "[1]; read-out: % Inhibition at 10 µM, 10 µM compound, relative to DMSO control", "value": "> 50", "unit": "%"}
    ]},
    {"smiles": "CC(=O)O[C@@H]1[C@H](O)C[C@@]2(C)[C@@H](CC[C@@H](C)[C@]23Cc2c(O)cc(CO)c(C=O)c2O3)C1(C)C", "note": "[Stachybotrysin C]", "values": [
      {"measurement": "inhibition at 10 µM", "setting": "[1]; [12]", "value": 37, "unit": "%"}
    ]},
    {"smiles": "COC1=CC(=O)c2c(c(O)c3oc4cc(OC)cc(C)c4c(=O)c3c2O)C1=O", "note": "[bikaverin]", "values": [
      {"measurement": "EC50", "setting": "MCF7 cells [10]", "value": 1970, "unit": "nM"}
    ]},
    {"smiles": "Cc1cc(O)c2c(c1)C(=O)c1cc(O)cc(O)c1C2=O", "note": "[emodin, reference compound]", "values": [
      {"measurement": "proliferating cells relative to control", "setting": "[5]; 1 µM", "value": "no effect"},
      {"measurement": "proliferating cells relative to control", "setting": "[5]; 10 µM", "value": 77, "unit": "%"},
      {"measurement": "proliferating cells relative to control", "setting": "[5]; 100 µM", "value": 5, "unit": "%"}
    ]}
  ]
}
